Measured values reported in patent publication US12497405B2, “Bicyclic heterocycle compounds methods of use thereof for the treatment of herpes viruses” (Merck Sharp & Dohme LLC, priority 2019, dated 2025).

System: CMV
Experiment: Viral qPCR assay, CMV
Format: cell-based
Settings: Human betaherpesvirus 5, 72 h, infected cells, viral genome copies by qPCR normalized to PPIA, read-out: CMV Cell EC50
Method: (§1) MRC5 cells, Vero cells, and MeWo cells were obtained from ATCC, and were maintained at 37° C./5% CO2/90% relative humidity in Minimal Essential Medium with 10% fetal bovine serum, […] L-glutamine, 100 units/ml penicillin and 100 ug/ml streptomycin. Assay plates were prepared by dispensing compounds dissolved in DMSO into wells of 384 well collagen-coated plates using an ECHO acoustic dispenser. Each test compound was tested in a 10-point, serial 3-fold dilution. Controls included uninfected cells and infected cells treated only with DMSO. Assays were initiated by mixing selected cells, in suspension, with virus, and dispensing 50 μl/well infected cells to pre-plated compounds. Plates were incubated at 37° C./5% CO2/90% relative humidity for ˜72 hrs to permit genomic replication, and infected cells were lysed by the addition of an equal volume of lysis buffer (10 mM Tris-HCl, pH8, 50 mM KCl, 2 mM MgCl2, 0.45% NP-40, 0.45% Tween-20, and 100 µg/ml proteinase K). An aliquot of the lysate was then transferred to a 384-well PCR plate and incubated at 56° C. for 1 hour, and then at 95° C. for 10 minutes. Levels of the selected viral gene and of the cellular control, PPIA, were measured in separate 10 μl qPCR assays using TaqMan® Gene Expression Master Mix (Applied Biosystems), and an 7900HT Fast Real-Time PCR System with 384-Well Block Module. 7-point, serial 10-fold dilutions of a plasmid standard were run on each plate to generate a standard curve, and genome copies numbers were calculated by plotting experimental Ct onto linear regression of the standard curve. Viral genome copy numbers were normalized by cellular control copy number, and compound effects were normalized to the window defined by the controls. Calculated % effects were fit using a 4-parameter algorithm, and EC50 was reported.

Compound	EC50 [nM]
Cc1nc2cc(-c3ccncn3)c(O[C@H]3CCN4C(=O)OC[C@@H]4C3)cc2c(=O)n1Cc1ccc(Cl)cc1 [Example 130]	190
O=C1OC[C@@H]2C[C@@H](Oc3cc4c(=O)n(Cc5ccc(Cl)cc5)c(OCCN5CCC5)nc4cc3-c3cnn(C(F)F)c3)CCN12 [Example 134]	119
Cc1cnnc(-c2cc3nc(C)n(Cc4ccc(Cl)cc4)c(=O)c3cc2O[C@H]2CCN3C(=O)OC[C@@H]3C2)c1 [Example 136]	826
O=C1OC[C@@H]2C[C@@H](Oc3cc4c(=O)n(Cc5ccc(Cl)cc5)c(N5CC(O)C5)nc4cc3-c3cnn(C(F)F)c3)CCN12 [Example 145]	101
Cc1nc2cc(-c3cncnc3)c(O[C@H]3CCN4C(=O)OC[C@@H]4C3)cc2c(=O)n1Cc1ccc(Cl)cc1 [Example 118]	135
Cc1nc2cc(-c3cnc(C(C)(C)O)nc3)c(O[C@H]3CCN4C(=O)OC[C@@H]4C3)cc2c(=O)n1Cc1ccc(Cl)cc1 [Example 154]	180
CC(C)(O)Cc1nc2cc(-c3cnn(C(F)F)c3)c(O[C@H]3CCN4C(=O)OC[C@@H]4C3)cc2c(=O)n1Cc1ccc(Cl)cc1 [Example 140]	2660
Cc1nc2cc(-c3cnc(OC4CC4)nc3)c(O[C@H]3CCN4C(=O)OC[C@@H]4C3)cc2c(=O)n1Cc1ccc(Cl)cc1 [Example 114]	348
N[C@H](Cc1nc2cc(-c3cnn(C(F)F)c3)c(O[C@H]3CCN4C(=O)OC[C@@H]4C3)cc2c(=O)n1Cc1ccc(Cl)cc1)C(F)(F)F [Example 156]	140
O=C1OC[C@@H]2C[C@@H](Oc3cc4c(=O)n(Cc5ccc(Cl)cc5)c(OC5CCOCC5)nc4cc3-c3cnn(C(F)F)c3)CCN12 [Example 126]	205
Cc1nc2cc(-c3cnc(N)nn3)c(O[C@H]3CCN4C(=O)OC[C@@H]4C3)cc2c(=O)n1Cc1ccc(Cl)cc1 [Example 144]	137
Cc1nc2cc(-c3cc4cnccn4c3)c(O[C@H]3CCN4C(=O)OC[C@@H]4C3)cc2c(=O)n1Cc1ccc(Cl)cc1 [Example 99]	272
O=C1OC[C@@H]2C[C@@H](Oc3cc4c(=O)n(Cc5ccc(Cl)cc5)c(CCN5CCOCC5)nc4cc3-c3cnn(C(F)F)c3)CCN12 [Example 120]	957
Cc1nccc(-c2cc3nc(C)n(Cc4ccc(Cl)cc4)c(=O)c3cc2O[C@H]2CCN3C(=O)OC[C@@H]3C2)n1 [Example 131]	102
O=C1OC[C@@H]2C[C@@H](Oc3cc4c(=O)n(Cc5ccc(Cl)cc5)c(CC5CCOCC5)nc4cc3-c3cnn(C(F)F)c3)CCN12 [Example 121]	299
N#Cc1nc2cc(-c3cnn(C(F)F)c3)c(O[C@H]3CCN4C(=O)OC[C@@H]4C3)cc2c(=O)n1Cc1ccc(Cl)cc1 [Example 106]	143
Cc1nc2cc(-c3nn4ccnc4s3)c(O[C@H]3CCN4C(=O)OC[C@@H]4C3)cc2c(=O)n1Cc1ccc(C#N)cc1 [Example 146]	67

Same assay, conditions: infected cells, ~72 hrs, viral genome copies by qPCR normalized to PPIA; read-out: CMV Cell EC50

Compound	EC50 [nM]
O=C1OC[C@@H]2C[C@@H](Oc3cc4c(=O)n(Cc5ccc(Cl)cc5)c(OC5CCC(O)CC5)nc4cc3-c3cnn(C(F)F)c3)CCN12 (single isomer, unassigned) [Example 143]	95

System: HSV1
Experiment: Viral qPCR assay, HSV1
Format: cell-based
Settings: Human alphaherpesvirus 1, 72 h, infected cells, viral genome copies by qPCR normalized to PPIA, read-out: HSV1 Cell EC50
Method: as §1

Compound	EC50 [nM]
Cc1nc2cc(-c3ccncn3)c(O[C@H]3CCN4C(=O)OC[C@@H]4C3)cc2c(=O)n1Cc1ccc(Cl)cc1 [Example 130]	167
O=C1OC[C@@H]2C[C@@H](Oc3cc4c(=O)n(Cc5ccc(Cl)cc5)c(OCCN5CCC5)nc4cc3-c3cnn(C(F)F)c3)CCN12 [Example 134]	171
Cc1cnnc(-c2cc3nc(C)n(Cc4ccc(Cl)cc4)c(=O)c3cc2O[C@H]2CCN3C(=O)OC[C@@H]3C2)c1 [Example 136]	1720
O=C1OC[C@@H]2C[C@@H](Oc3cc4c(=O)n(Cc5ccc(Cl)cc5)c(N5CC(O)C5)nc4cc3-c3cnn(C(F)F)c3)CCN12 [Example 145]	108
Cc1nc2cc(-c3cncnc3)c(O[C@H]3CCN4C(=O)OC[C@@H]4C3)cc2c(=O)n1Cc1ccc(Cl)cc1 [Example 118]	244
Cc1nc2cc(-c3cnc(C(C)(C)O)nc3)c(O[C@H]3CCN4C(=O)OC[C@@H]4C3)cc2c(=O)n1Cc1ccc(Cl)cc1 [Example 154]	403
CC(C)(O)Cc1nc2cc(-c3cnn(C(F)F)c3)c(O[C@H]3CCN4C(=O)OC[C@@H]4C3)cc2c(=O)n1Cc1ccc(Cl)cc1 [Example 140]	4310
Cc1nc2cc(-c3cnc(OC4CC4)nc3)c(O[C@H]3CCN4C(=O)OC[C@@H]4C3)cc2c(=O)n1Cc1ccc(Cl)cc1 [Example 114]	323
N[C@H](Cc1nc2cc(-c3cnn(C(F)F)c3)c(O[C@H]3CCN4C(=O)OC[C@@H]4C3)cc2c(=O)n1Cc1ccc(Cl)cc1)C(F)(F)F [Example 156]	176
O=C1OC[C@@H]2C[C@@H](Oc3cc4c(=O)n(Cc5ccc(Cl)cc5)c(OC5CCOCC5)nc4cc3-c3cnn(C(F)F)c3)CCN12 [Example 126]	372
Cc1nc2cc(-c3cnc(N)nn3)c(O[C@H]3CCN4C(=O)OC[C@@H]4C3)cc2c(=O)n1Cc1ccc(Cl)cc1 [Example 144]	189
Cc1nc2cc(-c3cc4cnccn4c3)c(O[C@H]3CCN4C(=O)OC[C@@H]4C3)cc2c(=O)n1Cc1ccc(Cl)cc1 [Example 99]	118
O=C1OC[C@@H]2C[C@@H](Oc3cc4c(=O)n(Cc5ccc(Cl)cc5)c(CCN5CCOCC5)nc4cc3-c3cnn(C(F)F)c3)CCN12 [Example 120]	2410
Cc1nccc(-c2cc3nc(C)n(Cc4ccc(Cl)cc4)c(=O)c3cc2O[C@H]2CCN3C(=O)OC[C@@H]3C2)n1 [Example 131]	223
O=C1OC[C@@H]2C[C@@H](Oc3cc4c(=O)n(Cc5ccc(Cl)cc5)c(CC5CCOCC5)nc4cc3-c3cnn(C(F)F)c3)CCN12 [Example 121]	188
N#Cc1nc2cc(-c3cnn(C(F)F)c3)c(O[C@H]3CCN4C(=O)OC[C@@H]4C3)cc2c(=O)n1Cc1ccc(Cl)cc1 [Example 106]	102
Cc1nc2cc(-c3nn4ccnc4s3)c(O[C@H]3CCN4C(=O)OC[C@@H]4C3)cc2c(=O)n1Cc1ccc(C#N)cc1 [Example 146]	93

Same assay, conditions: infected cells, ~72 hrs, viral genome copies by qPCR normalized to PPIA; read-out: HSV1 Cell EC50

Compound	EC50 [nM]
O=C1OC[C@@H]2C[C@@H](Oc3cc4c(=O)n(Cc5ccc(Cl)cc5)c(OC5CCC(O)CC5)nc4cc3-c3cnn(C(F)F)c3)CCN12 (single isomer, unassigned) [Example 143]	213

System: HSV2
Experiment: Viral qPCR assay, HSV2
Format: cell-based
Settings: Human alphaherpesvirus 2, 72 h, infected cells, viral genome copies by qPCR normalized to PPIA, read-out: HSV2 Cell EC50
Method: as §1

Compound	EC50 [nM]
Cc1nc2cc(-c3ccncn3)c(O[C@H]3CCN4C(=O)OC[C@@H]4C3)cc2c(=O)n1Cc1ccc(Cl)cc1 [Example 130]	287
O=C1OC[C@@H]2C[C@@H](Oc3cc4c(=O)n(Cc5ccc(Cl)cc5)c(OCCN5CCC5)nc4cc3-c3cnn(C(F)F)c3)CCN12 [Example 134]	98
Cc1cnnc(-c2cc3nc(C)n(Cc4ccc(Cl)cc4)c(=O)c3cc2O[C@H]2CCN3C(=O)OC[C@@H]3C2)c1 [Example 136]	2150
O=C1OC[C@@H]2C[C@@H](Oc3cc4c(=O)n(Cc5ccc(Cl)cc5)c(N5CC(O)C5)nc4cc3-c3cnn(C(F)F)c3)CCN12 [Example 145]	112
Cc1nc2cc(-c3cncnc3)c(O[C@H]3CCN4C(=O)OC[C@@H]4C3)cc2c(=O)n1Cc1ccc(Cl)cc1 [Example 118]	180
Cc1nc2cc(-c3cnc(C(C)(C)O)nc3)c(O[C@H]3CCN4C(=O)OC[C@@H]4C3)cc2c(=O)n1Cc1ccc(Cl)cc1 [Example 154]	485
CC(C)(O)Cc1nc2cc(-c3cnn(C(F)F)c3)c(O[C@H]3CCN4C(=O)OC[C@@H]4C3)cc2c(=O)n1Cc1ccc(Cl)cc1 [Example 140]	3760
Cc1nc2cc(-c3cnc(OC4CC4)nc3)c(O[C@H]3CCN4C(=O)OC[C@@H]4C3)cc2c(=O)n1Cc1ccc(Cl)cc1 [Example 114]	124
N[C@H](Cc1nc2cc(-c3cnn(C(F)F)c3)c(O[C@H]3CCN4C(=O)OC[C@@H]4C3)cc2c(=O)n1Cc1ccc(Cl)cc1)C(F)(F)F [Example 156]	93
O=C1OC[C@@H]2C[C@@H](Oc3cc4c(=O)n(Cc5ccc(Cl)cc5)c(OC5CCOCC5)nc4cc3-c3cnn(C(F)F)c3)CCN12 [Example 126]	140
Cc1nc2cc(-c3cnc(N)nn3)c(O[C@H]3CCN4C(=O)OC[C@@H]4C3)cc2c(=O)n1Cc1ccc(Cl)cc1 [Example 144]	319
Cc1nc2cc(-c3cc4cnccn4c3)c(O[C@H]3CCN4C(=O)OC[C@@H]4C3)cc2c(=O)n1Cc1ccc(Cl)cc1 [Example 99]	77
O=C1OC[C@@H]2C[C@@H](Oc3cc4c(=O)n(Cc5ccc(Cl)cc5)c(CCN5CCOCC5)nc4cc3-c3cnn(C(F)F)c3)CCN12 [Example 120]	1020
Cc1nccc(-c2cc3nc(C)n(Cc4ccc(Cl)cc4)c(=O)c3cc2O[C@H]2CCN3C(=O)OC[C@@H]3C2)n1 [Example 131]	157
O=C1OC[C@@H]2C[C@@H](Oc3cc4c(=O)n(Cc5ccc(Cl)cc5)c(CC5CCOCC5)nc4cc3-c3cnn(C(F)F)c3)CCN12 [Example 121]	128
N#Cc1nc2cc(-c3cnn(C(F)F)c3)c(O[C@H]3CCN4C(=O)OC[C@@H]4C3)cc2c(=O)n1Cc1ccc(Cl)cc1 [Example 106]	73
Cc1nc2cc(-c3nn4ccnc4s3)c(O[C@H]3CCN4C(=O)OC[C@@H]4C3)cc2c(=O)n1Cc1ccc(C#N)cc1 [Example 146]	143

Same assay, conditions: infected cells, ~72 hrs, viral genome copies by qPCR normalized to PPIA; read-out: HSV2 Cell EC50

Compound	EC50 [nM]
O=C1OC[C@@H]2C[C@@H](Oc3cc4c(=O)n(Cc5ccc(Cl)cc5)c(OC5CCC(O)CC5)nc4cc3-c3cnn(C(F)F)c3)CCN12 (single isomer, unassigned) [Example 143]	181
